{"source": "patent US9663460B2", "about": "“Sulfur derivatives as chemokine receptor modulators” (ALLERGAN, INC., priority 2010, dated 2017)"}
{"molecular_target": "CCR2 (Homo sapiens (Human), UniProt P41597)", "sequence (P41597 whole entry, species assumed)": "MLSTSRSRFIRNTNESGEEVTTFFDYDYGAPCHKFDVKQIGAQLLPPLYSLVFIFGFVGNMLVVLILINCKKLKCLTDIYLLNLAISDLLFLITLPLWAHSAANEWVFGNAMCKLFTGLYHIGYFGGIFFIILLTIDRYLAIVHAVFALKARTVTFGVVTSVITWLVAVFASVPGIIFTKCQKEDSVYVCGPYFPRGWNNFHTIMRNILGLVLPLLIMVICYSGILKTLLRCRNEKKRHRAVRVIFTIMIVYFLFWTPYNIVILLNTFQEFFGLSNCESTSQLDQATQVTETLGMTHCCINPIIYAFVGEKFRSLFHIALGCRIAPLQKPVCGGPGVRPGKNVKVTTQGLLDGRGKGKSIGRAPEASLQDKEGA", "assay": "Calcium activity assayed on the FLIPR Tetra in HEK-Gqi5 cells stably expressing CCR2", "format": "cell-based", "conditions": "FLIPR Tetra calcium assay", "method": "HEK-Gqi5 cells stably expressing CCR2 were cultured in (DMEM high glucose, 10% FBS, 1% PSA, 400 μg/ml geneticin and 50 μg/ml hygromycin. Appropriate positive control chemokines (MCP-1, MIP1A or RANTES) was used as the positive control agonist for screening compound-induced calcium activity assayed on the FLIPR^Tetra. The drug plates were prepared in 384-well microplates using the EP3 and the MuItiPROBE robotic liquid handling systems. Compounds were synthesized and tested for CCR^2 activity.", "units": {"CCR2 % ANTAGONISM": "%", "IC50": "nM"}}
{"smiles": "C[S+]([O-])c1ccc(Cl)cc1NS(=O)(=O)c1ccc(Cl)cc1", "note": "(centres unmarked) [4-chloro-N-[5-chloro-2-(methylsulfinyl)phenyl]benzenesulfonamide]", "CCR2 % ANTAGONISM": 91, "IC50": 62}
{"smiles": "CS(=O)(=O)c1ccc(Cl)cc1NS(=O)(=O)c1ccc(Cl)cc1F", "note": "[4-chloro-N-[5-chloro-2-(methylsulfonyl)phenyl]-2-fluorobenzenesulfonamide]", "CCR2 % ANTAGONISM": 98, "IC50": 171}
{"smiles": "CS(=O)(=O)c1ccc(Cl)cc1NS(=O)(=O)c1ccc(Cl)c(C(F)(F)F)c1", "note": "[4-chloro-N-[5-chloro-2-(methylsulfonyl)phenyl]-3-(trifluoromethyl)benzenesulfonamide]", "CCR2 % ANTAGONISM": 90, "IC50": 64}
{"smiles": "CS(=O)(=O)c1ccc(Cl)cc1NS(=O)(=O)c1ccc(Cl)cc1", "note": "[4-chloro-N-[5-chloro-2-(methylsulfonyl)phenyl]benzenesulfonamide]", "CCR2 % ANTAGONISM": 98, "IC50": 155}
{"smiles": "CSc1ccc(Cl)cc1NS(=O)(=O)c1ccc(Cl)c(C(F)(F)F)c1", "note": "[4-chloro-N-[5-chloro-2-(methylthio)phenyl]-3-(trifluoromethyl)benzenesulfonamide]", "CCR2 % ANTAGONISM": 82, "IC50": 134}
{"smiles": "CSc1ccc(Cl)cc1NS(=O)(=O)c1ccc(Cl)c(C)c1", "note": "[4-chloro-N-[5-chloro-2-(methylthio)phenyl]-3-methylbenzenesulfonamide]", "CCR2 % ANTAGONISM": 93, "IC50": 453}
{"smiles": "CSc1ccc(Cl)cc1NS(=O)(=O)c1ccc(Cl)cc1", "note": "[4-chloro-N-[5-chloro-2-(methylthio)phenyl]benzenesulfonamide]", "CCR2 % ANTAGONISM": 94, "IC50": 406}
{"smiles": "O=S(=O)(Nc1cc(Cl)ccc1[S+]([O-])Cc1ncc[nH]1)c1ccc(Cl)c(C(F)(F)F)c1", "note": "(centres unmarked) [4-chloro-N-{5-chloro-2-[(1H-imidazol-2-ylmethyl)sulfinyl]phenyl}-3-(trifluoromethyl)benzenesulfonamide]", "CCR2 % ANTAGONISM": 109, "IC50": 163}
{"smiles": "O=S(=O)(Cc1ncc[nH]1)c1ccc(Cl)cc1NS(=O)(=O)c1ccc(Cl)c(C(F)(F)F)c1", "note": "[4-chloro-N-{5-chloro-2-[(1H-imidazol-2-ylmethyl)sulfonyl]phenyl}-3-(trifluoromethyl)benzenesulfonamide]", "CCR2 % ANTAGONISM": 113, "IC50": 249}
{"smiles": "O=S(=O)(Nc1cc(Cl)ccc1SCc1ncc[nH]1)c1ccc(Cl)c(C(F)(F)F)c1", "note": "[4-chloro-N-{5-chloro-2-[(1H-imidazol-2-ylmethyl)thio]phenyl}-3-(trifluoromethyl)benzenesulfonamide]", "CCR2 % ANTAGONISM": 84, "IC50": 190}
{"smiles": "O=S(=O)(Nc1cc(Cl)ccc1[S+]([O-])Cc1c[nH]cn1)c1ccc(Cl)c(C(F)(F)F)c1", "note": "(centres unmarked) [4-chloro-N-{5-chloro-2-[(1H-imidazol-4-ylmethyl)sulfinyl]phenyl}-3-(trifluoromethyl)benzenesulfonamide]", "CCR2 % ANTAGONISM": 111, "IC50": 158}
{"smiles": "O=S(=O)(Cc1c[nH]cn1)c1ccc(Cl)cc1NS(=O)(=O)c1ccc(Cl)c(C(F)(F)F)c1", "note": "[4-chloro-N-{5-chloro-2-[(1H-imidazol-4-ylmethyl)sulfonyl]phenyl}-3-(trifluoromethyl)benzenesulfonamide]", "CCR2 % ANTAGONISM": 108, "IC50": 51}
{"smiles": "O=S(=O)(Nc1cc(Cl)ccc1SCc1c[nH]cn1)c1ccc(Cl)c(C(F)(F)F)c1", "note": "[4-chloro-N-{5-chloro-2-[(1H-imidazol-4-ylmethyl)thio]phenyl}-3-(trifluoromethyl)benzenesulfonamide]", "CCR2 % ANTAGONISM": 83, "IC50": 68}
{"smiles": "O=S(=O)(Nc1cc(Cl)ccc1[S+]([O-])CCO)c1ccc(Cl)c(C(F)(F)F)c1", "note": "(centres unmarked) [4-chloro-N-{5-chloro-2-[(2-hydroxyethyl)sulfinyl]phenyl}-3-(trifluoromethyl)benzenesulfonamide]", "CCR2 % ANTAGONISM": 101, "IC50": 146}
{"smiles": "O=S(=O)(CCO)c1ccc(Cl)cc1NS(=O)(=O)c1ccc(Cl)c(C(F)(F)F)c1", "note": "[4-chloro-N-{5-chloro-2-[(2-hydroxyethyl)sulfonyl]phenyl}-3-(trifluoromethyl)benzenesulfonamide]", "CCR2 % ANTAGONISM": 96, "IC50": 95}
{"smiles": "O=S(=O)(Nc1cc(Cl)ccc1SCCO)c1ccc(Cl)c(C(F)(F)F)c1", "note": "[4-chloro-N-{5-chloro-2-[(2-hydroxyethyl)thio]phenyl}-3-(trifluoromethyl)benzenesulfonamide]", "CCR2 % ANTAGONISM": 88, "IC50": 153}
{"smiles": "O=S(=O)(Nc1cc(Cl)ccc1[S+]([O-])C1CCC(O)C1)c1ccc(Cl)c(C(F)(F)F)c1", "note": "(centres unmarked) [4-chloro-N-{5-chloro-2-[(3-hydroxycyclopentyl)sulfinyl]phenyl}-3-(trifluoromethyl)benzenesulfonamide]", "CCR2 % ANTAGONISM": 101, "IC50": 107}
{"smiles": "O=S(=O)(Nc1cc(Cl)ccc1S(=O)(=O)C1CCC(O)C1)c1ccc(Cl)c(C(F)(F)F)c1", "note": "(centres unmarked) [4-chloro-N-{5-chloro-2-[(3-hydroxycyclopentyl)sulfonyl]phenyl}-3-(trifluoromethyl)benzenesulfonamide]", "CCR2 % ANTAGONISM": 97, "IC50": 76}
{"smiles": "O=S(=O)(Nc1cc(Cl)ccc1[S+]([O-])Cc1ccccn1)c1ccc(Cl)c(C(F)(F)F)c1", "note": "(centres unmarked) [4-chloro-N-{5-chloro-2-[(pyridin-2-ylmethyl)sulfinyl]phenyl}-3-(trifluoromethyl)benzenesulfonamide]", "CCR2 % ANTAGONISM": 83, "IC50": 92}
{"smiles": "O=S(=O)(Nc1cc(Cl)ccc1SCc1ccccn1)c1ccc(Cl)c(C(F)(F)F)c1", "note": "[4-chloro-N-{5-chloro-2-[(pyridin-2-ylmethyl)thio]phenyl}-3-(trifluoromethyl)benzenesulfonamide]", "CCR2 % ANTAGONISM": 79, "IC50": 199}
{"smiles": "O=S(=O)(Nc1cc(Cl)ccc1[S+]([O-])Cc1cccnc1)c1ccc(Cl)c(C(F)(F)F)c1", "note": "(centres unmarked) [4-chloro-N-{5-chloro-2-[(pyridin-3-ylmethyl)sulfinyl]phenyl}-3-(trifluoromethyl)benzenesulfonamide]", "CCR2 % ANTAGONISM": 97, "IC50": 112}
{"smiles": "O=S(=O)(Nc1cc(Cl)ccc1SCc1cccnc1)c1ccc(Cl)c(C(F)(F)F)c1", "note": "[4-chloro-N-{5-chloro-2-[(pyridin-3-ylmethyl)thio]phenyl}-3-(trifluoromethyl)benzenesulfonamide]", "CCR2 % ANTAGONISM": 85, "IC50": 94}
{"smiles": "C[S+]([O-])c1ccc(Cl)cc1NS(=O)(=O)c1cc2cc(Cl)ccc2o1", "note": "(centres unmarked) [5-chloro-N-[5-chloro-2-(methylsulfinyl)phenyl]-1-benzofuran-2-sulfonamide]", "CCR2 % ANTAGONISM": 92, "IC50": 655}
{"smiles": "CS(=O)(=O)c1ccc(Cl)cc1NS(=O)(=O)c1cc2cc(Cl)ccc2o1", "note": "[5-chloro-N-[5-chloro-2-(methylsulfonyl)phenyl]-1-benzofuran-2-sulfonamide]", "CCR2 % ANTAGONISM": 74, "IC50": 2050}
{"smiles": "CC(=O)Nc1nc(C[S+]([O-])c2ccc(Cl)cc2NS(=O)(=O)c2cc3ccccc3o2)cs1", "note": "(centres unmarked) [Compound 236, N-{-4-[({2-[(1-benzofuran-2-ylsulfonyl)amino]-4-chlorophenyl}sulfinyl)methyl]-1,3-thiazol-2-yl}acetamide]", "CCR2 % ANTAGONISM": 79, "IC50": 2680}
{"smiles": "CC(=O)Nc1nc(CS(=O)(=O)c2ccc(Cl)cc2NS(=O)(=O)c2cc3ccccc3o2)cs1", "note": "[Compound 237, N-{-4-[({2-[(1-benzofuran-2-ylsulfonyl)amino]-4-chlorophenyl}sulfonyl)methyl]-1,3-thiazol-2-yl}acetamide]", "CCR2 % ANTAGONISM": 87}
{"smiles": "CC(=O)NCC[S+]([O-])c1ccc(Cl)cc1NS(=O)(=O)c1ccc(Cl)c(C(F)(F)F)c1", "note": "(centres unmarked) [N-(2-{[4-chloro-2-({[4-chloro-3-(trifluoromethyl)phenyl]sulfonyl}amino)phenyl]sulfinyl}ethyl)acetamide]", "CCR2 % ANTAGONISM": 97}
{"smiles": "CC(=O)NCCS(=O)(=O)c1ccc(Cl)cc1NS(=O)(=O)c1ccc(Cl)c(C(F)(F)F)c1", "note": "[N-(2-{[4-chloro-2-({[4-chloro-3-(trifluoromethyl)phenyl]sulfonyl}amino)phenyl]sulfonyl}ethyl)acetamide]", "CCR2 % ANTAGONISM": 98, "IC50": 5190}
{"smiles": "Nc1nc(C[S+]([O-])c2ccc(Cl)cc2NS(=O)(=O)c2cc3ccccc3o2)cs1", "note": "(centres unmarked) [N-(2-{[(2-amino-1,3-thiazol-4-yl)methyl]sulfinyl}-5-chlorophenyl)-1-benzofuran-2-sulfonamide]", "CCR2 % ANTAGONISM": 100, "IC50": 262}
{"smiles": "Nc1nc(CS(=O)(=O)c2ccc(Cl)cc2NS(=O)(=O)c2cc3ccccc3o2)cs1", "note": "[N-(2-{[(2-amino-1,3-thiazol-4-yl)methyl]sulfonyl}-5-chlorophenyl)-1-benzofuran-2-sulfonamide]", "CCR2 % ANTAGONISM": 102, "IC50": 83}
{"smiles": "Nc1nc(CSc2ccc(Cl)cc2NS(=O)(=O)c2cc3ccccc3o2)cs1", "note": "[N-(2-{[(2-amino-1,3-thiazol-4-yl)methyl]thio}-5-chlorophenyl)-1-benzofuran-2-sulfonamide]", "CCR2 % ANTAGONISM": 102, "IC50": 42}
{"smiles": "Nc1cc(CS(=O)(=O)c2ccc(Cl)cc2NS(=O)(=O)c2cc3ccccc3o2)cc[n+]1[O-]", "note": "[N-(2-{[(2-amino-1-oxidopyridin-4-yl)methyl]sulfonyl}-5-chlorophenyl)-1-benzofuran-2-sulfonamide]", "CCR2 % ANTAGONISM": 54, "IC50": 9960}
{"smiles": "Nc1cc(C[S+]([O-])c2ccc(Cl)cc2NS(=O)(=O)c2cc3ccccc3o2)ccn1", "note": "(centres unmarked) [N-(2-{[(2-aminopyridin-4-yl)methyl]sulfinyl}-5-chlorophenyl)-1-benzofuran-2-sulfonamide]", "CCR2 % ANTAGONISM": 101, "IC50": 865}
{"smiles": "Nc1cc(CS(=O)(=O)c2ccc(Cl)cc2NS(=O)(=O)c2cc3ccccc3o2)ccn1", "note": "[N-(2-{[(2-aminopyridin-4-yl)methyl]sulfonyl}-5-chlorophenyl)-1-benzofuran-2-sulfonamide]", "CCR2 % ANTAGONISM": 101, "IC50": 364}
{"smiles": "Nc1cc(CSc2ccc(Cl)cc2NS(=O)(=O)c2cc3ccccc3o2)ccn1", "note": "[N-(2-{[(2-aminopyridin-4-yl)methyl]thio}-5-chlorophenyl)-1-benzofuran-2-sulfonamide]", "CCR2 % ANTAGONISM": 100, "IC50": 80}
